{"source": "ChEMBL document CHEMBL1212763", "about": "“Pharmacokinetics and safety of S/GSK1349572, a next-generation HIV integrase inhibitor, in healthy volunteers” (Antimicrob Agents Chemother, 2010)", "key": {"[1]": {"assay": "Drug level at 24 hrs in healthy human at 10 mg administered as single dose suspension", "format": "ADME, organism-based", "settings": "in vivo, read-out: Drug uptake"}, "[2]": {"assay": "Drug level at 24 hrs in healthy human at 25 mg administered as single dose suspension", "format": "ADME, organism-based", "settings": "in vivo, read-out: Drug uptake"}, "[3]": {"assay": "Drug level at 24 hrs in healthy human at 50 mg administered as single dose suspension", "format": "ADME, organism-based", "settings": "in vivo, read-out: Drug uptake"}, "[4]": {"assay": "Drug level at 24 hrs in healthy human at 100 mg administered as single dose suspension", "format": "ADME, organism-based", "settings": "in vivo, read-out: Drug uptake"}, "[5]": {"assay": "Cmax in healthy human at 10 mg, qd for 10 days administered as suspension measured after last dose", "format": "ADME, organism-based", "set-up": "dose 10 mg", "settings": "in vivo"}, "[6]": {"assay": "Cmax in healthy human at 25 mg, qd for 10 days administered as suspension measured after last dose", "format": "ADME, organism-based", "set-up": "dose 25 mg", "settings": "in vivo"}, "[7]": {"assay": "Cmax in healthy human at 50 mg, qd for 10 days administered as suspension measured after last dose", "format": "ADME, organism-based", "set-up": "dose 50 mg", "settings": "in vivo"}, "[8]": {"assay": "Tmax in healthy human at 10 mg, qd for 10 days administered as suspension measured after last dose", "format": "ADME, organism-based", "settings": "in vivo"}, "[9]": {"assay": "Tmax in healthy human at 25 mg, qd for 10 days administered as suspension measured after last dose", "format": "ADME, organism-based", "settings": "in vivo"}, "[10]": {"assay": "Tmax in healthy human at 50 mg, qd for 10 days administered as suspension measured after last dose", "format": "ADME, organism-based", "settings": "in vivo"}, "[11]": {"assay": "AUC (0-tau) in healthy human at 10 mg, qd for 10 days administered as suspension measured after last dose", "format": "ADME, organism-based", "settings": "plasma"}, "[12]": {"assay": "AUC (0-tau) in healthy human at 25 mg, qd for 10 days administered as suspension measured after last dose", "format": "ADME, organism-based", "settings": "plasma"}, "[13]": {"assay": "AUC (0-tau) in healthy human at 50 mg, qd for 10 days administered as suspension measured after last dose", "format": "ADME, organism-based", "settings": "plasma"}, "[14]": {"assay": "Drug level in healthy human at 10 mg, qd for 10 days administered as suspension measured after last dose", "format": "ADME, organism-based", "settings": "in vivo, read-out: Drug uptake"}, "[15]": {"assay": "Drug level in healthy human at 25 mg, qd for 10 days administered as suspension measured after last dose", "format": "ADME, organism-based", "settings": "in vivo, read-out: Drug uptake"}, "[16]": {"assay": "Drug level in healthy human at 50 mg, qd for 10 days administered as suspension measured after last dose", "format": "ADME, organism-based", "settings": "in vivo, read-out: Drug uptake"}, "Homo sapiens [17]": {"tested_on": "Homo sapiens", "assay": "Toxicity in healthy human assessed as incidence of adverse events at 2 to 100 mg administered as single dose suspension", "format": "organism-based", "settings": "in vivo"}, "Homo sapiens [18]": {"tested_on": "Homo sapiens", "assay": "Toxicity in healthy human assessed as incidence of adverse events at 10 to 50 mg, qd for 10 days administered as suspension measured after last dose", "format": "organism-based", "settings": "in vivo, 240 h"}, "Homo sapiens [19]": {"tested_on": "Homo sapiens", "assay": "Toxicity in healthy human assessed as incidence of drug related incidence of somnolence at 2 mg administered as single dose suspension", "format": "organism-based", "settings": "in vivo"}, "Homo sapiens [20]": {"tested_on": "Homo sapiens", "assay": "Toxicity in healthy human assessed as incidence of drug related incidence of somnolence at 5 mg administered as single dose suspension", "format": "organism-based", "settings": "in vivo"}, "Homo sapiens [21]": {"tested_on": "Homo sapiens", "assay": "Toxicity in healthy human assessed as incidence of drug related incidence of head ache at 10 mg administered as single dose suspension", "format": "organism-based", "settings": "in vivo"}, "Homo sapiens [22]": {"tested_on": "Homo sapiens", "assay": "Toxicity in healthy human assessed as incidence of drug related incidence of somnolence at 10 mg administered as single dose suspension", "format": "organism-based", "settings": "in vivo"}, "Homo sapiens [23]": {"tested_on": "Homo sapiens", "assay": "Toxicity in healthy human assessed as incidence of drug related incidence of somnolence at 25 mg administered as single dose suspension", "format": "organism-based", "settings": "in vivo"}, "Homo sapiens [24]": {"tested_on": "Homo sapiens", "assay": "Toxicity in healthy human assessed as incidence of drug related incidence of somnolence at 50 mg administered as single dose suspension", "format": "organism-based", "settings": "in vivo"}, "Homo sapiens [25]": {"tested_on": "Homo sapiens", "assay": "Toxicity in healthy human assessed as incidence of drug related incidence of somnolence at 100 mg administered as single dose suspension", "format": "organism-based", "settings": "in vivo"}, "Homo sapiens [26]": {"tested_on": "Homo sapiens", "assay": "Toxicity in healthy human assessed as incidence of drug related incidence of headache at 10 mg, qd for 10 days administered as suspension measured after last dose", "format": "organism-based", "settings": "in vivo, 240 h"}, "Homo sapiens [27]": {"tested_on": "Homo sapiens", "assay": "Toxicity in healthy human assessed as incidence of drug related incidence of pharyngolaryngeal pain at 10 mg, qd for 10 days administered as suspension measured after last dose", "format": "organism-based", "settings": "in vivo, 240 h"}, "Homo sapiens [28]": {"tested_on": "Homo sapiens", "assay": "Toxicity in healthy human assessed as incidence of drug related incidence of pruritis at 10 mg, qd for 10 days administered as suspension measured after last dose", "format": "organism-based", "settings": "in vivo, 240 h"}, "Homo sapiens [29]": {"tested_on": "Homo sapiens", "assay": "Toxicity in healthy human assessed as incidence of drug related incidence of headache at 25 mg, qd for 10 days administered as suspension measured after last dose", "format": "organism-based", "settings": "in vivo, 240 h"}, "Homo sapiens [30]": {"tested_on": "Homo sapiens", "assay": "Toxicity in healthy human assessed as incidence of drug related incidence of pharyngolaryngeal pain at 25 mg, qd for 10 days administered as suspension measured after last dose", "format": "organism-based", "settings": "in vivo, 240 h"}, "Homo sapiens [31]": {"tested_on": "Homo sapiens", "assay": "Toxicity in healthy human assessed as incidence of drug related incidence of pruritis at 25 mg, qd for 10 days administered as suspension measured after last dose", "format": "organism-based", "settings": "in vivo, 240 h"}, "Homo sapiens [32]": {"tested_on": "Homo sapiens", "assay": "Toxicity in healthy human assessed as incidence of drug related incidence of headache at 50 mg, qd for 10 days administered as suspension measured after last dose", "format": "organism-based", "settings": "in vivo, 240 h"}, "Homo sapiens [33]": {"tested_on": "Homo sapiens", "assay": "Toxicity in healthy human assessed as incidence of drug related incidence of pharyngolaryngeal pain at 50 mg, qd for 10 days administered as suspension measured after last dose", "format": "organism-based", "settings": "in vivo, 240 h"}, "Homo sapiens [34]": {"tested_on": "Homo sapiens", "assay": "Toxicity in healthy human assessed as incidence of drug related incidence of pruritis at 50 mg, qd for 10 days administered as suspension measured after last dose", "format": "organism-based", "settings": "in vivo, 240 h"}, "Homo sapiens [35]": {"tested_on": "Homo sapiens", "assay": "Toxicity in healthy human assessed as incidence of drug related incidence of headache at 25 mg, qd for 10 days administered as suspension measured after last dose coadministered with 3 mg CYP3A4 probe midazolam", "format": "organism-based", "settings": "in vivo, 240 h"}, "Homo sapiens [36]": {"tested_on": "Homo sapiens", "assay": "Toxicity in healthy human assessed as incidence of drug related incidence of pharyngolaryngeal pain at 25 mg, qd for 10 days administered as suspension measured after last dose coadministered with 3 mg CYP3A4 probe midazolam", "format": "organism-based", "settings": "in vivo, 240 h"}, "Homo sapiens [37]": {"tested_on": "Homo sapiens", "assay": "Toxicity in healthy human assessed as incidence of drug related incidence of pruritis at 25 mg, qd for 10 days administered as suspension measured after last dose coadministered with 3 mg CYP3A4 probe midazolam", "format": "organism-based", "settings": "in vivo, 240 h"}, "[38]": {"assay": "Cmax in healthy human at 2 mg administered as single dose suspension", "format": "ADME, organism-based", "set-up": "dose 2 mg", "settings": "in vivo"}}}
{"molecule": "C[C@@H]1CCO[C@H]2Cn3cc(C(=O)NCc4ccc(F)cc4F)c(=O)c([O-])c3C(=O)N12.[Na+]", "note": "[DOLUTEGRAVIR SODIUM]", "values": [{"measurement": "concentration at 24 h", "setting": "[1]", "result": 196, "unit": "ng/mL"}, {"measurement": "concentration at 24 h", "setting": "[2]", "result": 469, "unit": "ng/mL"}, {"measurement": "concentration at 24 h", "setting": "[3]", "result": 1060, "unit": "ng/mL"}, {"measurement": "concentration at 24 h", "setting": "[4]", "result": 1800, "unit": "ng/mL"}, {"measurement": "Cmax", "setting": "[5]", "result": 1470, "unit": "ng/mL"}, {"measurement": "Cmax", "setting": "[6]", "result": 3090, "unit": "ng/mL"}, {"measurement": "Cmax", "setting": "[7]", "result": 6160, "unit": "ng/mL"}, {"measurement": "Tmax", "setting": "[8]", "result": 30, "unit": "min"}, {"measurement": "Tmax", "setting": "[9]", "result": 1, "unit": "h"}, {"measurement": "Tmax", "setting": "[10]", "result": 1, "unit": "h"}, {"measurement": "AUC tau at 240 h", "setting": "[11]", "result": 16700, "unit": "ng·h/mL"}, {"measurement": "AUC tau at 240 h", "setting": "[12]", "result": 38400, "unit": "ng·h/mL"}, {"measurement": "AUC tau at 240 h", "setting": "[13]", "result": 76800, "unit": "ng·h/mL"}, {"measurement": "concentration at 240 h", "setting": "[14]", "result": 350, "unit": "ng/mL"}, {"measurement": "concentration at 240 h", "setting": "[15]", "result": 840, "unit": "ng/mL"}, {"measurement": "concentration at 240 h", "setting": "[16]", "result": 1640, "unit": "ng/mL"}, {"measurement": "Activity", "setting": "Homo sapiens [17]", "result": "Non-toxic"}, {"measurement": "Activity", "setting": "Homo sapiens [18]", "result": "Non-toxic"}, {"measurement": "Activity", "setting": "Homo sapiens [19]", "result": 0, "unit": "%"}, {"measurement": "Activity", "setting": "Homo sapiens [20]", "result": 0, "unit": "%"}, {"measurement": "Activity", "setting": "Homo sapiens [21]", "result": 13, "unit": "%"}, {"measurement": "Activity", "setting": "Homo sapiens [22]", "result": 0, "unit": "%"}, {"measurement": "Activity", "setting": "Homo sapiens [23]", "result": 0, "unit": "%"}, {"measurement": "Activity", "setting": "Homo sapiens [24]", "result": 33, "unit": "%"}, {"measurement": "Activity", "setting": "Homo sapiens [25]", "result": 0, "unit": "%"}, {"measurement": "Activity", "setting": "Homo sapiens [26]", "result": 0, "unit": "%"}, {"measurement": "Activity", "setting": "Homo sapiens [27]", "result": 0, "unit": "%"}, {"measurement": "Activity", "setting": "Homo sapiens [28]", "result": 0, "unit": "%"}, {"measurement": "Activity", "setting": "Homo sapiens [29]", "result": 0, "unit": "%"}, {"measurement": "Activity", "setting": "Homo sapiens [30]", "result": 0, "unit": "%"}, {"measurement": "Activity", "setting": "Homo sapiens [31]", "result": 0, "unit": "%"}, {"measurement": "Activity", "setting": "Homo sapiens [32]", "result": 22, "unit": "%"}, {"measurement": "Activity", "setting": "Homo sapiens [33]", "result": 11, "unit": "%"}, {"measurement": "Activity", "setting": "Homo sapiens [34]", "result": 22, "unit": "%"}, {"measurement": "Activity", "setting": "Homo sapiens [35]", "result": 0, "unit": "%"}, {"measurement": "Activity", "setting": "Homo sapiens [36]", "result": 0, "unit": "%"}, {"measurement": "Activity", "setting": "Homo sapiens [37]", "result": 0, "unit": "%"}, {"measurement": "Cmax", "setting": "[38]", "result": 231, "unit": "ng/mL"}]}
